Data from paper PMC12048343, “Discovery of a small molecule secreted clusterin enhancer that improves memory in Alzheimer’s disease mice” (npj Drug Discovery, 2025).

Assays:
[1] = test system: sirtuin 1 (SirT1) expression in SH-SY5Y cells; test: SirT1 AlphaLISA in SH-SY5Y cell lysate; format: cell-based, human; details: 200 nM, 24 h
Procedure: Additional assays: The Aβ1-42 ELISA assay was performed on hippocampus brain homogenate according to the manufacturer’s protocol (Fisher KHB3441). Humanin in cell culture lysate was quantify by ELISA assay, according to the manufacturer’s protocol (MyBioSourc Cat# MBS7607247). SirT1 in cell culture lysate was quantify using AlphaLISA. Cell lysate (2 μL) was added to a 384-well proxy plate preloaded with 2 µL anti-SiRT1 antibody mixture (ABCAM catalog AB110304, biotinylated (10 nM) and ABCAM catalog AB104833, acceptor bead conjugated (50 µg/mL, Cat#6772001, Perkin Elmer)) was added and incubated at room temperature for 1 hour. AlphaScreen Streptavidin Donor beads (2 µL, Cat#6760002S, Perkin Elmer) were added, incubated for an additional 30 min in the dark, and the plate was read in an Envision plate reader.

[2] = In-vivo pharmacokinetics, brain levels after oral administration; details: mice
Procedure: Following oral administration of compound, mice brain tissue and plasma were collected after euthanasia and perfusion at 1, 2, 4, 6 and 8 h. All animals will be euthanized by ketamine/xylazine injection to allow cardiac puncture and saline perfusion, which is consistent with recommendations of the AVMA Panel on Euthanasia. Brain tissue were homogenized in a bead beater using 5 volumes of ice-cold 80% acetonitrile (1/5; mg of brain/µL of 80% ACN). Plasma analytes were extracted using 4 volumes of ice-cold acetonitrile (1/4; µL of plasma/µL of ACN). Solutions were clarified by centrifugation (16,000 x g, 5 min) and the supernatants were transferred to new tubes and lyophilized. Samples were reconstituted in 100 µL of 50/50/0.1 (Water/Acetonitrile/Formic Acid) prior to analysis via liquid chromatography-tandem mass spectrometry (LC-MS/MS). An internal standard (IS) was added to every sample to account for compound loss during sample processing. Standards were made in drug naïve plasma and brain lysates with increasing amounts of analyte (S1,S2: 0 pmol/ S3,S4: 1 pmol/ S5,S6: 10 pmol/ S7,S8: 100 pmol, S9,S10: 1000 pmol). The standard curve was made by plotting the known amount of analyte per standard vs. the ratio of measured chromatographic peak areas corresponding to the analyte over that of the IS (analyte/IS). The trendline equation was then used to calculate the absolute concentrations of each compound in plasma and brain tissue.
Analysis of compound levels was done at the UCLA Pasarow Mass Spectrometry Lab (PMSL; Julian Whitelegge, Ph.D., Director). A targeted LC-MS/MS assay was developed for each compound using the multiple reaction monitoring (MRM) acquisition method on a 6460 triple quadrupole mass spectrometer (Agilent Technologies) coupled to a 1290 Infinity HPLC system (Agilent Technologies) with a Phenomenex analytical column (Kinetex 1.7 µm C18 100 Å 100 ×2.1 mm). The HPLC method utilized a mixture of solvent A ([…]) and solvent B ([…]) and a gradient was use for the elution of the compounds (min/%B: 0/1, 3/1, 19/99, 20/1, 30/1). Two fragment ions originating from each compound were monitored at specific LC retention times to ensure specificity and accurate quantification in the complex biological samples. The normalized chromatographic peak areas were determined by taking the ratio of measured chromatographic peak areas corresponding to each compound over that of the internal standard (Analyte/IS).

[3] = test system: SH-SY5Y neuronal cells; test: Oxygen consumption rate in SH-SY5Y cells; format: cell-based, human; details: 24 h, 8, 40 and 200 nM, dose-dependent
[4] = test system: 3xTg-AD mice; test: Barnes maze assessment of spatial learning and memory; format: in vivo, mouse; details: oral 15 mg/kg BID, 6 weeks; significant on Day 3 of training and in the 48-hour probe
Procedure: Male and female 3-month-old mice were administered DDL-357 via pipette feeding at a dose of 15 mg/kg BID (30 mg/kg/day). Mice were weighed before the first dose for the calculation of volume to be administered. The formulation used comprised DDL-357 as a 15 mg/mL solution dissolved in a strawberry flavored solution (propylene glycol/water/strawberry syrup, 2/1/1, v/v/v). ApoE4TR-5XFAD mice (7 mice, 3 females & 4 males-vehicle; 7 mice, 4females and 3 males – DDL357) were dosed for two weeks. 3xTg-AD mice (13 mice, 5 females & 8 males-vehicle; 13 mice, 4 females and 9 males- DDL357) were dosed for six weeks before entering Barnes Maze testing. At end of study, mice brain tissue and plasma were collected after euthanasia and perfusion. […]
Barnes Maze testing was performed as describe by Attar et al. Briefly, in a room with visual cues on the walls, mice are introduced in a circular maze containing 20 holes where 19 holes are closed during training and all 20 holes are closed during the probe trials. […] During the probe days, the target hole is closed, and spatial memory of the mouse is determined during a 90 s probe trial. […] Over the course of the training and probe trials, the software-calculated parameters included, but were not limited to, total distance traveled, speed, number of holes visited, latency to visiting the target/escape hole, percent time spent in the four quadrants of the maze.

SMILES	sirtuin 1 (SirT1) expression [1]	unbound brain concentration versus sCLU EC50 ([2]; oral 3 mg/kg, one hour post administration)	unbound brain concentration versus sCLU EC50 ([2]; oral 10 mg/kg, one hour post administration)	maximum brain concentration (total) ([2]; oral 30 mg/kg, one hour after administration)	concentration at 1 h ([2]; mouse, oral 30 mg/kg, 1 h, from total brain level and brain tissue binding 75.3%, read-out: unbound brain concentration)	oxygen consumption rate [3]	Barnes maze performance (latency to escape hole) [4]	unbound brain concentration versus sCLU EC50 ([2]; oral 3, 10 or 30 mg/kg (Fig. S6))
Cc1sc2c(c1C)C(c1ccc(Cl)cc1)=N[C@@H](CC(=O)OC1CC1)c1nnc(C)n1-2 [DDL-357]	significantly increased expression	below the sCLU EC50	below the sCLU EC50	1850 nM	457 nM	increased the oxygen consumption rate	performed better overall during both the training and probe phases	
Cc1sc2c(c1C)C(c1ccc(Cl)cc1)=N[C@@H](CC(=O)OC1COC1)c1nnc(C)n1-2 [DDL-356]								reaches higher concentrations of unbound drug in the brain above its sCLU EC50 at lower doses
